Measurements: patent US12492173B2, “Herbicidal substituted N-tetrazolyl aryl carboxamides” (Bayer Aktiengesellschaft, priority 2019, dated 2025)

Experiments:
Assay type in all cases: in vivo
Stellaria media = assay: Pre-emergence herbicidal action, STEME; design: key to Herbicidal action against STEME: % activity: 100 = plants have died, 0 = like control plants; details: for herbicidal activity STEME: scored visually after 3 weeks vs untreated controls (100% = plants have died); for Herbicidal action against STEME: comparative experiment
In short: (§1)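 Percent damage, assessed visually after 3 weeks and referenced to untreated controls, reflects a pre-emergence treatment. Spray liquid equated to 600 to 800 l/ha with 0.2% wetting agent, applied to the covering soil over seeds in sandy loam.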

Veronica persica = assay: Pre-emergence herbicidal action, VERPE; design: key to Herbicidal action against VERPE: % activity: 100 = plants have died, 0 = like control plants; details: for herbicidal activity VERPE: scored visually after 3 weeks vs untreated controls (100% = plants have died); for Herbicidal action against VERPE: comparative experiment
In short: as §1

Setaria viridis = assay: Pre-emergence herbicidal action, SETVI; design: key to Herbicidal action against SETVI: % activity: 100 = plants have died, 0 = like control plants; details: for herbicidal activity SETVI: scored visually after 3 weeks vs untreated controls (100% = plants have died); for Herbicidal action against SETVI: comparative experiment
In short: as §1

Amaranthus retroflexus = assay: Post-emergence herbicidal action, AMARE; design: key: % herbicidal action vs untreated; 100 = plants died, 0 = like control; details: for Herbicidal action against AMARE: comparative experiment
In short: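 Visual % damage versus untreated plants, scored about 3 weeks post-spray (100% = dead, 0% = like control). Greenhouse plants in sandy loam were treated at one-leaf stage with WP/EC formulations in water at 600 to 800 l/ha plus 0.2% wetting agent.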

Echinochloa crus-galli = assay: Pre-emergence herbicidal action, ECHCG; design: key to Herbicidal action against ECHCG: % activity: 100 = plants have died, 0 = like control plants; details: for herbicidal activity ECHCG: scored visually after 3 weeks vs untreated controls (100% = plants have died); for Herbicidal action against ECHCG: comparative experiment
In short: as §1

[1] = post-emergence, 20 g of a.i./ha

| Structure (SMILES) | herbicidal activity STEME (Stellaria media; dosage 320 g/ha) [%] | herbicidal activity VERPE (Veronica persica; dosage 320 g/ha) [%] | herbicidal activity SETVI (Setaria viridis; dosage 320 g/ha) [%] | herbicidal action AMARE (Amaranthus retroflexus; Dosage 80 g/ha) | herbicidal activity ECHCG (Echinochloa crus-galli; dosage 320 g/ha) [%] | herbicidal action AMARE (Amaranthus retroflexus; post-emergence, dosage 80 g/ha) [%] | other results |
| --- | --- | --- | --- | --- | --- | --- | --- |
| CSc1c(C(=O)Nc2nnnn2C)ccc(C(F)F)c1C[S+](C)[O-] (stereo not drawn) [Example 1-171] | 100 | 100 | 100 | 100 | 100 |  |  |
| CCn1nnnc1NC(=O)c1ccc(C(F)(F)F)c(CS(C)(=O)=O)c1Cl [Example 2-298] | 90 | 100 | 100 | 90 | 100 |  |  |
| CCn1nnnc1NC(=O)c1ccc(C(F)(F)F)c(C[S+]([O-])CC)c1Cl (stereo not drawn) [Example 2-300] | 100 | 100 | 100 |  | 100 | 100 |  |
| Cn1nnnc1NC(=O)c1ccc(C(F)F)c(CS(C)(=O)=O)c1Cl [Example 1-322] | 100 | 100 | 100 |  | 100 | 80 |  |
| CCCn1nnnc1NC(=O)c1ccc(C(F)F)c(CSCC)c1Cl [Example 3-323] | 100 | 100 | 100 | 90 | 100 |  |  |
| CC[S+]([O-])Cc1c(C(F)(F)F)ccc(C(=O)Nc2nnnn2C)c1Br (racemic) [Example 1-384] | 100 | 100 | 100 |  | 100 | 90 | Herbicidal action against STEME (Stellaria media; 80 g of a.i./ha): 100; Herbicidal action against SETVI (Setaria viridis; 80 g of a.i./ha): 100; Herbicidal action against AMARE (Amaranthus retroflexus; [1]): 90; Herbicidal action against ECHCG (Echinochloa crus-galli; 80 g of a.i./ha): 100 |
| CSCc1c(Cl)ccc(C(=O)Nc2nnnn2C)c1Cl [Example 1-559] |  |  |  |  |  | 100 | herbicidal action STEME (Stellaria media; dosage 320 g/ha): 90%; herbicidal action VERPE (Veronica persica; dosage 320 g/ha): 90%; herbicidal action SETVI (Setaria viridis; dosage 320 g/ha): 80%; herbicidal action ECHCG (Echinochloa crus-galli; dosage 320 g/ha): 100% |
| CCn1nnnc1NC(=O)c1ccc(C(F)(F)F)c(CSC)c1Cl [Example 2-296] | 100 | 100 | 100 |  | 100 | 100 |  |
| CSCc1c(I)ccc(C(=O)Nc2nnnn2C)c1Cl [Example 1-362] | 100 | 100 | 100 |  | 100 | 100 | Herbicidal action against STEME (Stellaria media; 20 g of a.i./ha): 90; Herbicidal action against VERPE (Veronica persica; 20 g of a.i./ha): 60; Herbicidal action against SETVI (Setaria viridis; 20 g of a.i./ha): 90; Herbicidal action against AMARE (Amaranthus retroflexus; post-emergence, 5 g of a.i./ha): 100; Herbicidal action against ECHCG (Echinochloa crus-galli; 20 g of a.i./ha): 80 |
| CCn1nnnc1NC(=O)c1ccc(C(F)(F)F)c(CS(=O)(=O)CC)c1Br [Example 2-385] | 100 | 100 | 100 |  | 100 | 90 |  |
| CCSCc1c(C(F)F)ccc(C(=O)Nc2nnnn2CC)c1Cl [Example 2-323] | 100 | 100 | 100 |  | 100 | 80 |  |
| CCn1nnnc1NC(=O)c1ccc(C(F)(F)F)c(C[S+](C)[O-])c1Cl (stereo not drawn) [Example 2-297] | 100 | 100 | 100 |  | 100 | 100 |  |
| CCn1nnnc1NC(=O)c1ccc(C(F)F)c(CSC)c1SC [Example 2-170] | 100 | 100 | 100 | 100 | 100 |  |  |
| CCS(=O)(=O)Cc1c(C(F)(F)F)ccc(C(=O)Nc2nnnn2C)c1Br [Example 1-385] | 90 | 100 | 100 |  | 100 | 90 | Herbicidal action against VERPE (Veronica persica; 80 g of a.i./ha): 100; Herbicidal action against SETVI (Setaria viridis; 80 g of a.i./ha): 90; Herbicidal action against AMARE (Amaranthus retroflexus; [1]): 90; Herbicidal action against ECHCG (Echinochloa crus-galli; 80 g of a.i./ha): 100 |
| Cn1nnnc1NC(=O)c1ccc(C(F)(F)F)c(C[S+]([O-])CC(F)(F)F)c1Cl (racemic) [Example 1-312] | 100 | 100 | 100 |  | 100 | 100 |  |
| CCCn1nnnc1NC(=O)c1ccc(C(F)(F)F)c(C[S+]([O-])CC)c1Br (stereo not drawn) [Example 3-384] | 90 | 100 | 100 | 90 | 100 |  |  |
| Cn1nnnc1NC(=O)c1ccc(C(F)(F)F)c(CS(=O)(=O)CC2CC2)c1Cl [Example 1-316] | 100 | 100 | 100 | 100 | 100 |  |  |
| COCC[S+]([O-])Cc1c(C(F)(F)F)ccc(C(=O)Nc2nnnn2C)c1Cl (racemic) [Example 1-306] | 100 | 90 | 90 | 100 | 100 |  |  |
| CCCn1nnnc1NC(=O)c1ccc(C(F)F)c(CS(C)(=O)=O)c1SC [Example 3-172] | 100 | 100 | 100 | 100 | 100 |  |  |
| CSc1c(C(=O)Nc2nnnn2C)ccc(C(F)(F)F)c1C[S+](C)[O-] (stereo not drawn) [Example 1-162] | 100 | 90 | 100 |  | 100 | 100 | Herbicidal action against ECHCG (Echinochloa crus-galli; 20 g of a.i./ha): 90 |
| CCSCc1c(C(F)(F)F)ccc(C(=O)Nc2nnnn2C)c1Br [Example 1-383] | 100 | 100 | 100 |  | 100 | 90 | Herbicidal action against VERPE (Veronica persica; 80 g of a.i./ha): 100; Herbicidal action against SETVI (Setaria viridis; 80 g of a.i./ha): 100; Herbicidal action against ECHCG (Echinochloa crus-galli; 80 g of a.i./ha): 100 |
| Cn1nnnc1NC(=O)c1ccc(I)c(C[S+](C)[O-])c1Cl (racemic) [Example 1-363] | 100 | 100 | 100 |  | 100 | 100 | Herbicidal action against STEME (Stellaria media; 20 g of a.i./ha): 100; Herbicidal action against SETVI (Setaria viridis; 20 g of a.i./ha): 90 |
| CCn1nnnc1NC(=O)c1ccc(C(F)F)c(CS(=O)(=O)CC)c1Cl [Example 2-325] | 100 | 100 | 100 | 90 | 100 |  |  |
| CCSCc1c(C(F)(F)F)ccc(C(=O)Nc2nnnn2C)c1Cl [Example 1-299] | 100 | 100 | 100 |  | 100 | 100 | Herbicidal action against VERPE (Veronica persica; 20 g of a.i./ha): 100; Herbicidal action against SETVI (Setaria viridis; 20 g of a.i./ha): 90 |
